Entries after “also recorded” stand apart in the source; their conditions may differ.
Legend:
[1] = test system: rats subjected to lateral FPI; assay: Distance traveled and activity post FPI; format: in vivo, rat; conditions: FIG. 4B
Source text: (§1) Thus, M21 and TRPM7 inhibitors are effective treatments to reduce the damaging effects of neurotrauma, including concussions.

[2] = test system: neurons, hepatocytes, cardiomyocytes, retina; assay: Survival after anoxia in cells and tissues; format: cell-based; conditions: summary statement
[3] = test system: rats subjected to lateral FPI; assay: Rotarod performance after lateral FPI; format: in vivo, rat; conditions: FIG. 4A
Source text: as §1

neurons = assay: Sublethal neuronal stretch injury model, survival by PI fluorescence; format: cell-based; conditions: applied 1 hour after stretch injury, PI fluorescence 24 hours after; FIG. 3
Procedure: Likewise, TRPM7 inhibitors are also expected to provide neuroprotection to other types of brain injuries. […] This model is described in Arundine et al, (J. Neurosci, 2004:8106-23). TRPM7 inhibitors such as M21 were applied 1 hour after stretch injury and cells were assessed for survival by PI fluorescence 24 hours after the injury. […] Thus, this assay can be predictive of in vivo efficacy.

[4] = test system: rat brains subjected to concussive brain trauma; assay: Fluid percussion injury (FPI) model, TTC staining of brain sections; format: in vivo; conditions: applied prior to the injury or 1 hour after; 2-6 atm injury; FIG. 1
Procedure: Inhibitors of TRPM7 were tested for their ability to provide neuroprotection to rat brains subjected to concussive brain trauma using a rodent model of fluid percussion injury (FPI). FPI was performed as described in the literature using 350-370 g male Sprague Dawley rats (Charles River, St. Constant, Quebec, Canada). In brief, 24 h before injury, the animal was anesthetized using 2% halothane and 2:1 nitrous oxide:oxygen. A 4.8 mm craniotomy was made with its center between the bregma and lambda and between the sagittal suture and right temporal ridge. A modified Leur-loc fitting was attached over the craniotomy and cemented in place using Acron MC/R dental acrylic (GC America, Alsip, Ill.). The Leur-loc was filled with saline, and a small piece of gelfoam was inserted. The incision was sutured, and the animal was returned to its cage overnight if not used same day. The following day, the incision was reopened, cleaned, and the gelfoam was removed. […] Injury severity was recorded using an oscilloscope attached to a transducer, and by sectioning the brains and staining with 2,3,5-Triphenyltetrazolium chloride staining (TTC). […]
Likewise, TRPM7 inhibitors are also expected to provide neuroprotection to other types of brain injuries. […] TRPM7 inhibitors such as M21 were applied 1 hour after stretch injury and cells were assessed for survival by PI fluorescence 24 hours after the injury. […]

TRPM7 ion channel = biological target: T1, TRPM7 ion channel (Mus musculus, UniProt Q923J1); assay: Whole-cell patch clamp of TRPM7 currents in HEK293 cells; format: cell-based; conditions: value shown = concentration at which the compound significantly inhibits the ion channel
T1 construct: expressed in transfected cells; host or cells: TRPM7-tet-on HEK293 cells
Procedure: To further understand the structure function relationships between the TRPM7 inhibitors identified in the TRPM7-dependent HEK death assay, the activity of a subset of these inhibitors described herein were tested for their ability to inhibit TRPM7 currents in cell systems. Whole-cell patch clamp recordings were used essentially as described to test the TRPM7 inhibitors in HEK293 cells, H9c2 cardiomyocytes and cultured neurons. […] Those that provide >10% inhibition of TRPM7 channel activity in the HEK293 cell system were labeled with the concentration tested (generally 5 uM). Thus, the compounds in this table marked with such a value are able to block the activity gof the TRPM7 ion channel. FIGS. 2A-C provide an example of this for the TRPM7 inhibitor 399 (Structure 9). […] Numbers in brackets indicate the number of independent tests, and the bars represent the SEM.
Whole-cell currents were recorded using an Axopatch 1D or MultiClamp 700B amplifier and were digitized at 10 kHz and low-pass filtered at 2 kHz, at room temperature. pClamp10 software was used for data acquisition and analysis. Patch electrodes were pulled from Borosilicate glass and fire polished to a resistance of 2-4 MΩ. All drugs were administrated directly to cell bodies under recording through the fast exchange perfusion system.
The intracellular solution (ICS) contains (mM) 145 Cs-methanesulfonate, 8 NaCl, l MgCl2, 4.1 CaCl2, 10 EGTA, and 10 HEPES, 5 ATP, pH at 7.4, with 300-305 mOsm. The extracellular solution (ECS) contains (mM) 140 NaCl, 5 KCl, 2 CaCl2, 20 HEPES, and 10 glucose, pH at 7.4 and with 315-320 mOsm.
Voltage stimuli lasting 250 ms were delivered at 5-s intervals with voltage ramps ranging from −100 to +100 mV. The current values at −80 mV and +80 mV on I-V curve represent the measures of inward and outward current respectively.
Table X and FIGS. 7-51 show screening data for several additional compounds that are variants of M5, M6 or M21. The synthesis of compounds of Table X and FIGS. 7-51 is shown in Appendices A-C. The compounds shown in FIGS. 7-51 can be related to the appropriate row of Table X by the compound number shown in the figures and in the first column of Table X. The compounds in Table X other than M5, M6 and M21 themselves, are believed to be novel. The Table provides a number identifying the compound, its structurer, molecular weight and its cluster (i.e., whether the compound resembles M5, M6 or M21). The three columns relations to PI uptake describe the results of screening the compounds in the type of assay from Example 1. […] The last two columns show an effect on proliferation of Weri retinoblastoma or HeLa cervical cancer cells. Inhibition of proliferation is a measure of anti-neoplastic activity. […] If no data is shown, no test was performed.

T1 sequence (Q923J1 whole entry): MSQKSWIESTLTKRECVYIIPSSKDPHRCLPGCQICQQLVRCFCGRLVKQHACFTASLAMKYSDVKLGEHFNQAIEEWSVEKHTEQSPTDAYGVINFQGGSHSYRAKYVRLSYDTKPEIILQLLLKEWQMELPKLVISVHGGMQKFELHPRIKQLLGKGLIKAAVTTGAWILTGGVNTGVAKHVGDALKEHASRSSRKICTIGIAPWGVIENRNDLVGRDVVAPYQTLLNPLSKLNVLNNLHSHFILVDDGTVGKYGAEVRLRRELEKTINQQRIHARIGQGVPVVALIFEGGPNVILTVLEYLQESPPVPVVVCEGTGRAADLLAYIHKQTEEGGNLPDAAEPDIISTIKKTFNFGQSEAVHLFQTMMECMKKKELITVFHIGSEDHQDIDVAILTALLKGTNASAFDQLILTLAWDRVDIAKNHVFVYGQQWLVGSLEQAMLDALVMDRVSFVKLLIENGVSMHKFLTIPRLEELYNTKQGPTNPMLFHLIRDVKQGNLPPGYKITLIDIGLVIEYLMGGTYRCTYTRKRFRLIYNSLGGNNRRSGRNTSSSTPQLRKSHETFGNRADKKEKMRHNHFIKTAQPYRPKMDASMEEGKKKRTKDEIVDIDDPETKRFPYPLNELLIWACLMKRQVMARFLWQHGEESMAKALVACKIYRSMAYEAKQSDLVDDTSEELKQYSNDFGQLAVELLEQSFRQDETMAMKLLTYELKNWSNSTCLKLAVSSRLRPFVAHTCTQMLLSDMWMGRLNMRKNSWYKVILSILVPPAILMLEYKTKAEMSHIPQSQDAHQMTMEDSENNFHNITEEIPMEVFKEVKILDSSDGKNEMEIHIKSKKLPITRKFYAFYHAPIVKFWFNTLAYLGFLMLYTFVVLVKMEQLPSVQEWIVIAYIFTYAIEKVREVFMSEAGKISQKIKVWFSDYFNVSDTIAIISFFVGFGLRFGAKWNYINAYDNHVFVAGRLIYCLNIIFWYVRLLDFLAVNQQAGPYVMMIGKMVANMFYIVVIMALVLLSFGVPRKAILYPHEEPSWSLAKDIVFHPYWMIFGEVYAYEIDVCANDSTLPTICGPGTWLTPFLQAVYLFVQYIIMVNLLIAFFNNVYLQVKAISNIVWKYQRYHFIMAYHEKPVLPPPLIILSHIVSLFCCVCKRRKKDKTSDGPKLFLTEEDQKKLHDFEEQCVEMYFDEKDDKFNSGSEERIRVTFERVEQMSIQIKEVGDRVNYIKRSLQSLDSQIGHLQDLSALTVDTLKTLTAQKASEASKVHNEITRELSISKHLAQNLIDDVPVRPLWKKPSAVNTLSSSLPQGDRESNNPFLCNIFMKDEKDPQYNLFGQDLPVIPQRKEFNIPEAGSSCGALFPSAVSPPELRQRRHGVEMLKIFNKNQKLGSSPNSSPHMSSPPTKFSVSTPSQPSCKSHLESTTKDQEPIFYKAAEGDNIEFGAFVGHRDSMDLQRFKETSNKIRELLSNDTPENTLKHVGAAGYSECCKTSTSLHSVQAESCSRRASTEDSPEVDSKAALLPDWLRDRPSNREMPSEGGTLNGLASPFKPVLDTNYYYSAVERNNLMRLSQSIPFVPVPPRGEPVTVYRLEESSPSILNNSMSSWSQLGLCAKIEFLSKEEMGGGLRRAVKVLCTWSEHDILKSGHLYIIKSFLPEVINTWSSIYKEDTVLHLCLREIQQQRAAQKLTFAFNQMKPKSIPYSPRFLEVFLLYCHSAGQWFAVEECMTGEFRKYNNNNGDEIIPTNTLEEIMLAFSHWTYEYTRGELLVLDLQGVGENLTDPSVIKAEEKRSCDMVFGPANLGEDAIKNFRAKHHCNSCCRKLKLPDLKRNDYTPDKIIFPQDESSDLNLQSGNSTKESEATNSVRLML

For Cc1c(Cc2ccc(Cl)c(Cl)c2)c(=O)oc2cc(O)ccc12 [Compound M21], the “distance traveled and activity post FPI” value [1] was “comparable to uninjured animals”, the survival after anoxia [2] was “broadly effective in increasing survival after anoxia in various tissues” and the “time able to maintain balance on the Rotarod relative to injured animals treated with vehicle alone” value [3] was “twice the time”. For the same compound, the “Rotarod performance (mean latency)” value ([3]; first day post injury, compared to FPI+Vehicle) was “near wild type levels of performance”, the “protection from cell death after stretch injury” value (neurons) was “can protect neurons from cell death due to stretch injuries; also recorded: increased protection from cell death” and the “protection of rat brains from fluid percussion-induced neuronal damage” value [4] was “able to protect the brain from injuries sustained from concussive trauma; also recorded: significant protection”. For the same compound, the TRPM7 current (TRPM7 ion channel) was 5 μM (Those that provide >10% inhibition of TRPM7 channel activity in the HEK293 cell system were labeled with the concentration tested (generally 5 uM)).
